Data from patent US8592458B2 (priority 2005, dated 2013).

Target: α7 nAChR (Rattus norvegicus, UniProt Q05941)
Format: binding
Details: rat brain membranes; Ki alpha4beta2 / Ki alpha7, divided by the alpha7 selectivity of DMXBA (1.95); DMXBA set to 1.00

α7 nAChR, sequence (Q05941 23-502): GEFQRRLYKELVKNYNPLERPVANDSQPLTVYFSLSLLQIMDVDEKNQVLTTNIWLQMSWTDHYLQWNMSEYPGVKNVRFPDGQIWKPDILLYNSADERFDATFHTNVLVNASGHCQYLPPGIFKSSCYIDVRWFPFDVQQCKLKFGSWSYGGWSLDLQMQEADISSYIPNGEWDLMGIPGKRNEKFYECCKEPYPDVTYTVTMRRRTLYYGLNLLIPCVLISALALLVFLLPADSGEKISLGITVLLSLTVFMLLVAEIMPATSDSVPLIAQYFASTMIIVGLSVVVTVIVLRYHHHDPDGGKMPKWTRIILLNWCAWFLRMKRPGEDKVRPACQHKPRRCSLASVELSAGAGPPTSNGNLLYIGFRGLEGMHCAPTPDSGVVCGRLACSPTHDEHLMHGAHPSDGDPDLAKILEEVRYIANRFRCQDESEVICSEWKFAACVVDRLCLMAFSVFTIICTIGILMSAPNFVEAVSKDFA

Molecule | RELATIVE A7/A4B2 SELECTIVITY
COc1ccc(/C=C2\CCCN=C2c2cccnc2)c(OC)c1 [DMXBA (GTS-21), (E)-3-(2,4-dimethoxybenzylidene)-3,4,5,6-tetrahydro-2,3′-bipyridine, reference compound] | 1.00
CC1CCC(c2cccnc2)=NC1 (racemic) [(S,R)-5-Methyl-Anabaseine, 5-Methyl-Anabaseine] | 0.38
COc1ccc(C=C2CC(C)CN=C2c2cccnc2)c(OC)c1 (stereo not drawn) [Most selective enantiomer of 5-Methyl-DMXBA, 3-(2,4-dimethoxybenzylidene)-(5-methyl)-3,4,5,6-tetrahydro-2,3′-bipyridine] | 2.34
COc1ccc(C=C2CCC(C)N=C2c2cccnc2)c(OC)c1 (stereo not drawn) [Least selective enantiomer of 6-Methyl-DMXBA, 3-(2,4-dimethoxybenzylidene)-(6-methyl)-3,4,5,6-tetrahydro-2,3′-bipyridine] | 2.93
COc1ccc(C=C2CCC(C)N=C2c2cccnc2)c(OC)c1 (stereo not drawn) [Most selective enantiomer of 6-Methyl-DMXBA, 3-(2,4-dimethoxybenzylidene)-(6-methyl)-3,4,5,6-tetrahydro-2,3′-bipyridine] | 5.34
CC1CCN=C(c2cccnc2)C1 (racemic) [(S,R)-4-Methyl-Anabaseine, 4-Methyl-anabaseine] | 0.69
COc1ccc(C=C2CC(C)CN=C2c2cccnc2)c(OC)c1 (racemic) [(S,R)-5-Methyl-DMXBA, 3-(2,4-dimethoxybenzylidene)-(5-methyl)-3,4,5,6-tetrahydro-2,3′-bipyridine] | 1.31
4′-Methyl-DMXBA | 14.8
COc1ccc(C=C2C(c3cccnc3)=NCCC2C)c(OC)c1 (racemic) [(S,R)-4-Methyl-DMXBA, 3-(2,4-dimethoxybenzylidene)-(4-methyl)-3,4,5,6-tetrahydro-2,3′-bipyridine] | 4.10
COc1ccc(C=C2C(c3cccnc3)=NCCC2C)c(OC)c1 (stereo not drawn) [Most selective enantiomer of 4-Methyl-DMXBA, 3-(2,4-dimethoxybenzylidene)-(4-methyl)-3,4,5,6-tetrahydro-2,3′-bipyridine] | 8.34
CC1CCCC(c2cccnc2)=N1 (racemic) [(S,R)-6-Methyl-Anabaseine, 6-methyl-anabaseine] | 1.19
COc1ccc(C=C2CC(C)CN=C2c2cccnc2)c(OC)c1 (stereo not drawn) [Least selective enantiomer of 5-Methyl-DMXBA, 3-(2,4-dimethoxybenzylidene)-(5-methyl)-3,4,5,6-tetrahydro-2,3′-bipyridine] | 1.03
COc1ccc(C=C2CCC(C)N=C2c2cccnc2)c(OC)c1 (racemic) [(S,R)-6-Methyl-DMXBA, 3-(2,4-dimethoxybenzylidene)-(6-methyl)-3,4,5,6-tetrahydro-2,3′-bipyridine] | 3.67
c1cncc(C2=NCCCC2)c1 [Anabaseine, reference compound] | 0.69
COc1cc(O[C@@H]2O[C@H](C(=O)O)[C@@H](O)[C@H](O)[C@H]2O)ccc1C=C1CCCN=C1c1cccnc1 [3-(4-Beta-Glucuronidyl-2-methoxyB)A, 3-(4-Glucuronido-2-methoxybenzylidene)-anabaseine] | 9.40

Same assay, conditions: rat brain membranes; Ki alpha4beta2 / Ki alpha7, divided by the alpha7 selectivity of DMXBA (1.95); DMXBA set to 1.00; listed as 4-methyl-DMXBA enantiomer which had a longer retention time

Molecule | RELATIVE A7/A4B2 SELECTIVITY
COc1ccc(C=C2C(c3cccnc3)=NCCC2C)c(OC)c1 (stereo not drawn) [Least selective enantiomer of 4-Methyl-DMXBA, 3-(2,4-dimethoxybenzylidene)-(4-methyl)-3,4,5,6-tetrahydro-2,3′-bipyridine] | 1.28

Same assay, conditions: rat brain nAChR; compared with the other enantiomer

Molecule | relative alpha7 nAChR (versus alpha4beta2) receptor binding selectivity, higher than that of the other enantiomer
COc1ccc(C=C2C(c3cccnc3)=NCCC2C)c(OC)c1 (stereo not drawn) [Most selective enantiomer of 4-Methyl-DMXBA, 3-(2,4-dimethoxybenzylidene)-(4-methyl)-3,4,5,6-tetrahydro-2,3′-bipyridine] | 6.5 fold
